# Laboratory results: publication PMC10770970, “Synthesis and cytotoxic activity evaluation of novel imidazopyridine carbohydrazide derivatives” (BMC Chemistry, 2024)
# “Also recorded” adds a separate entry of the source.
# How the values were obtained:
# [1] = tested on: K562 (human chronic myelogenous leukemia) cells; assay: MTT reduction cytotoxicity assay, K562; format: cell-based; settings: ± S.E.M., max tested 100 µM
# Method: (§1) All synthesized compounds were evaluated for cytotoxic activity against three human cancer cell lines including MCF-7, HT-29, and K562 by employing an MTT (3-(4,5-dimethylthiazol-2-yl)-2,5-diphenyltetrazolium bromide) assay. […] Cisplatin and doxorubicin were tested as standard chemotherapeutic reference agents.
# (§2) MCF-7 (human breast adenocarcinoma), HT-29 (Human colorectal adenocarcinoma), K562 (human chronic myelogenous leukemia), and Vero (kidney epithelial cells of African green monkey) cells were obtained from Iranian Biological Resource Center, Tehran, Iran. MCF-7, K562, and Vero cells were cultured in RPMI 1640 medium containing 10% heat-inactivated fetal bovine serum (FBS) and 1% penicillin/streptomycin, while HT-29 cells were grown in DMEM low glucose, containing 20% heat-inactivated FBS and 1% penicillin/streptomycin. All cells were grown in monolayer culture at 37 °C in a humidified incubator with 5% CO2.
# (§3) Assessment of cell viability after exposure of cancer and non-cancer cells to synthetic compounds was performed using the MTT (3-(4,5-dimethylthiazol-2-yl)-2,5-diphenyltetrazolium bromide) reduction assay. Cells were plated in 96-well microplates at densities of 30,000 cells/mL (100 μL in each well). The plates were incubated overnight at 37 °C and then 50 μL of the growth medium was replaced with the same amount of fresh medium containing 3–4 different concentrations of synthesized analogs at the final concentrations of 10–100 µM. Test compounds were initially dissolved in DMSO and then diluted in the growth medium. The upper limit of DMSO concentration in each well was 0.5%. After 72 h of incubation, 80 μL of the solution in each well was substituted with the same quantity of the growth medium comprising of MTT solution at 0.5 mg/mL. Cells were subsequently incubated at 37 °C for 4 h and then 80 μL of the solution in each well was removed. The introduction of DMSO (200 μL) to each well caused the formazan crystals formed inside the viable cells to dissolve. The process lasted 1.5 h (1 h of incubation and 30 min of shaking). The optical absorbance of the final solution was quantified at the wavelength of 570 nm using a microplate reader. IC50 values for all derivatives were calculated using CurveExpert 1.34 software.
# [2] = tested on: Vero (kidney epithelial cells of African green monkey) cells; assay: MTT reduction cytotoxicity assay, Vero non-cancer cells; format: cell-based; settings: 72 h, ± S.E.M., max tested 100 µM
# Method: as §1, §2, §3
# [3] = tested on: MCF-7 (human breast adenocarcinoma) cells; assay: MTT reduction cytotoxicity assay, MCF-7; format: cell-based; settings: ± S.E.M., max tested 100 µM
# Method: as §1, §2, §3
# [4] = tested on: HT-29 (Human colorectal adenocarcinoma) cells; assay: MTT reduction cytotoxicity assay, HT-29; format: cell-based; settings: ± S.E.M., max tested 100 µM
# Method: as §1, §2, §3
# [5] = tested on: MCF-7 cells; assay: Cell cycle analysis by RNase/propidium iodide flow cytometry; format: cell-based, human; settings: 48 h; for Percent of MCF-7 cells in Sub G1: control 0.8 ± 0.3; for Percent of MCF-7 cells in S: control 11.7 ± 2.3; for Percent of MCF-7 cells in G2/M: control 26.1 ± 2.9; for Percent of MCF-7 cells in G0/G1: control 61.4 ± 1.4
# Method: Fig. 3 Effect of compound 7d on cell cycle phase distribution of MCF-7 cells. The analysis of cells in different phases of the cell cycle was performed using propidium iodide (PI)-based assessment of cell cycle by flow cytometry. […] The cells were then collected, washed with PBS and fixed with 70% ethanol overnight at −20 °C. After 24 h, the fixed cells were incubated in a PI-RNase solution at room temperature and 10,000 cells were analyzed using a FACS Calibur flow cytometer (BD Biosciences)
# The analysis of cells in different phases of the cell cycle and the sub-G1 phase were monitored using RNase/propidium iodide (PI)-based assessment of the cell cycle by flow cytometry. […] At the end of the incubation, the culture media in each well were collected and the cells were washed with PBS. Then, they were fixed with 70% ethanol overnight at −20 °C. After 24 h, the fixed cells were washed with PBS and subsequently stained with DNA staining solution (PI 20 μg/mL and RNase 200 μg/mL) at room temperature for 30 min in the dark. Ten thousand cells of each sample were analyzed using a FACS Calibur flow cytometer (BD Biosciences) and the percentage of the cells in sub-G1, G0/G1, S, and G2/M phases were calculated using CellQuest (BD, USA) software.
# [6] = tested on: MCF-7 cells; assay: Apoptosis by Hoechst 33,258 staining; format: cell-based, human; settings: 100 µM, 72 h
# Method: This also further adds to the potential value of this derivative as an anticancer agent, as it is known that apoptosis evasion is an important hallmark of cancer, and apoptosis induction capacity is an important feature of any successful therapeutic agent.
# Fig. 4 Measurement of apoptosis induced by Hoechst 33,258 staining assay. […] The cells were then stained with 2.5 µg/ml Hoechst 33,258 after being fixed with 4% cold paraformaldehyde (PFA) and imaged using a fluorescence microscope (Magnification: 500 X). Apoptotic cells as featured by nuclear shrinkage, fragmentation, condensation, etc., are shown by red arrows
# Hoechst 33,258 staining assay was used to determine apoptosis induction in cancer cells. Hoechst 33,258 is a fluorescent dye that binds to minor grooves in DNA and is commonly used to determine the characteristic features of apoptosis including condensation and fragmentation, etc. in the cell’s nuclei. MCF-7 cells were cultured in 6-well plates at a density of 10^5 cells/ml and exposed to 100 µM of compound 7d for 72 h. The growth medium was completely removed at the end of the incubation time and the cells were fixed with 1 ml of 4% cold freshly prepared paraformaldehyde (PFA) and incubated for 20 min. […] In the end, the cells were washed twice with PBS and imaged with a fluorescence microscope (Nikon model DS-Ri2).
SMILES,"IC50 ([1]; Homo sapiens, K562, 72 h)","IC50 ([3]; Homo sapiens, MCF7, 72 h)","IC50 ([4]; Homo sapiens, HT-29, 72 h)",melting point,"IC50 ([2]; Chlorocebus sabaeus, Vero)",other results
"N.N.[Cl][Pt][Cl] [Cisplatin, reference compound]",,,,,,IC50 ([1]; 72 h): 9.4 ± 0.5 µM; IC50 [2]: 10.6 ± 1.3 µM; IC50 ([3]; 72 h): 25.9 ± 6.9 µM; IC50 ([4]; 72 h): 22.4 ± 5.8 µM
"NNC(=O)c1cn2ccccc2n1 [Compound 5, imidazo[1,2-a]pyridine-2-carbohydrazide]",> 100 µM,> 100 µM,> 100 µM,,,
"O=C(NN=Cc1ccccc1)c1cn2ccccc2n1 [Compound 7a, N´-benzylidene imidazo[1,2-a]pyridine-2-carbohydrazide]",> 100 µM,> 100 µM,> 100 µM,257 to 259 °C,,
"O=C(NN=Cc1ccc(F)cc1)c1cn2ccccc2n1 [Compound 7b, N´-(4-fluorobenzylidene)imidazo[1,2-a]pyridine-2-carbohydrazide]",> 100 µM,> 100 µM,> 100 µM,234 to 236 °C,,
"O=C(NN=Cc1ccc(Cl)cc1)c1cn2ccccc2n1 [Compound 7c, N´-(4-chlorobenzylidene)imidazo[1,2-a]pyridine-2-carbohydrazide]",> 100 µM,64.8 ± 11.8 µM,85.4 ± 10.3 µM,226 to 228 °C,65.6 ± 4.5 µM,
"O=C(NN=Cc1ccc(Br)cc1)c1cn2ccccc2n1 [Compound 7d, N´-(4-bromobenzylidene)imidazo[1,2-a]pyridine-2-carbohydrazide]",> 100 µM,22.6 ± 1 µM,13.4 ± 1.3 µM,230 to 232 °C,> 100 µM,Percent of MCF-7 cells in Sub G1 ([5]; 7d 20 µM): 0.8 ± 0.6%; Percent of MCF-7 cells in S ([5]; 7d 20 µM): 11.9 ± 5.7%; Percent of MCF-7 cells in G2/M ([5]; 7d 20 µM): 23.3 ± 10.0%; Percent of MCF-7 cells in G0/G1 ([5]; 7d 20 µM): 64.2 ± 7.6%; Percent of MCF-7 cells in Sub G1 ([5]; 7d 50 µM): 0.8 ± 0.6%; Percent of MCF-7 cells in S ([5]; 7d 50 µM): 11.1 ± 4.9%; Percent of MCF-7 cells in G2/M ([5]; 7d 50 µM): 21.1 ± 8.8%; Percent of MCF-7 cells in G0/G1 ([5]; 7d 50 µM): 67.0 ± 8.4%; Percent of MCF-7 cells in Sub G1 ([5]; 7d 100 µM): 1.1 ± 0.9%; Percent of MCF-7 cells in S ([5]; 7d 100 µM): 10.2 ± 5.3%; Percent of MCF-7 cells in G2/M ([5]; 7d 100 µM): 21.5 ± 7.2%; Percent of MCF-7 cells in G0/G1 ([5]; 7d 100 µM): 67.2 ± 7.5%; Effect on cell cycle phase distribution (in words) ([5]; MCF-7 cells): dose-dependent increase in the G0/G1 phase and a concomitant decrease in the G2/M phase; also recorded: increased the number of MCF-7 cells in the G0/G1 phase; also recorded: increase the number of cancer cells in the G0/G1 phase; IC50 Vero [2]: completely inactive; also recorded: no toxic effect; Apoptosis induction (in words) [6]: induce apoptosis; also recorded: clear signs of apoptosis including nuclear condensation and fragmentation
"Cc1ccc(C=NNC(=O)c2cn3ccccc3n2)cc1 [Compound 7e, N´-(4-methylbenzylidene)imidazo[1,2-a]pyridine-2-carbohydrazide]",> 100 µM,> 100 µM,> 100 µM,180 to 182 °C,,
"C#CCNNC(=O)c1cn2ccccc2n1 [Compound 9, N´-(Prop-2-yn-1-yl) imidazo[1,2-a]pyridine-2-carbohydrazide]",23.7 ± 2.3 µM,70.1 ± 5.3 µM,21.4 ± 1.9 µM,142 to 144 °C,73 ± 9.9 µM,
"O=C(NNCc1cn(Cc2ccccc2)nn1)c1cn2ccccc2n1 [Compound 11a, N´-((1-benzyl-1H-1,2,3-triazol-4-yl)methyl)imidazo[1,2-a]pyridine-2-carbohydrazide]",> 100 µM,40.3 ± 2.9 µM,61.2 ± 6.3 µM,,> 100 µM,IC50 Vero [2]: completely inactive
"O=C(NNCc1cn(Cc2ccc(F)cc2)nn1)c1cn2ccccc2n1 [Compound 11b, N´-((1-(4-fluorobenzyl)-1H-1,2,3-triazol-4-yl)methyl)imidazo[1,2-a]pyridine-carbohydrazide]",> 100 µM,> 100 µM,> 100 µM,205 to 207 °C,,
"O=C(NNCc1cn(Cc2ccc(Cl)cc2)nn1)c1cn2ccccc2n1 [Compound 11c, N´-((1-(4-chlorobenzyl)-1H-1,2,3-triazol-4-yl)methyl)imidazo[1,2-a]pyridine-carbohydrazide]",> 100 µM,> 100 µM,> 100 µM,193 to 195 °C,,
"O=C(NNCc1cn(Cc2ccc(Br)cc2)nn1)c1cn2ccccc2n1 [Compound 11d, N´-((1-(4-bromobenzyl)-1H-1,2,3-triazol-4-yl)methyl)imidazo[1,2-a]pyridine-carbohydrazide]",> 100 µM,> 100 µM,83.9 µM,186 to 188 °C,> 100 µM,IC50 K562 ([1]; 72 h): no activity; IC50 Vero [2]: completely inactive; IC50 MCF-7 ([3]; 72 h): no activity; IC50 ([4]; 72 h): 83.8 ± 13.1 µM
"Cc1ccc(Cn2cc(CNNC(=O)c3cn4ccccc4n3)nn2)cc1 [Compound 11e, N´-((1-(4-methylbenzyl)-1H-1,2,3-triazol-4-yl)methyl)imidazo[1,2-a]pyridine-carbohydrazide]",> 100 µM,> 100 µM,> 100 µM,140 to 142 °C,,
"COc1cccc2c1C(=O)c1c(O)c3c(c(O)c1C2=O)C[C@@](O)(C(=O)CO)C[C@@H]3O[C@H]1C[C@H](N)[C@H](O)[C@H](C)O1 [Doxorubicin, reference compound]",,,,,2.6 ± 0.3 µM,
